Test systems include UO-31; SF-295; RXF 393; LOX IMVI; EKVX; SNB-75; A549; U-251; SK-MEL-2; HL-60; NCI-H23; NCI-H460; KM12; OVCAR-5; M14; TK-10; MOLT-4; MCF7; MDA-MB-435.
What all share (assay): NCI tumour cell line growth inhibition, 48 h

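Compound exposure: 48 hours, 5 concentrations, 96-well plates. GI50 = concentration required for 50% inhibition of growth.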 Calls of active or inactive are those of the source. Cut-off read from the data, not from the text of the source: active = GI50 up to about 1.1 µM and inactive = higher.

Regarding `CN(C)CC1CCCC/C1=N/OC(=O)c1ccc(Cl)c(Cl)c1` (stereo not given), the GI50 was 70.6 µM (inactive) in the test with UO-31; > 100 µM (inactive) with SF-295; > 100 µM (inactive) in the test with RXF 393; > 100 µM (inactive) in the test on LOX IMVI; > 100 µM (inactive) in the test on EKVX; 33.3 µM (inactive) in the test with SNB-75. Besides, the GI50 in the test with A549, in the test on U-251, in the test with SK-MEL-2, in the test with HL-60, in the test with NCI-H23 and with NCI-H460 was > 100 µM (inactive) in each case. Also, the GI50 with KM12, in the test on OVCAR-5, in the test on M14 and in the test on TK-10 was > 100 µM (inactive) each time.
Consider `CCCCCCCCC(=O)CCCCCCCCC(=O)O`, for which the GI50 was 33.3 µM (inactive) in the test on UO-31; 26.4 µM (inactive) in the test with SF-295; 27.4 µM (inactive) in the test on RXF 393; 14.8 µM (inactive) in the test with LOX IMVI; 28.4 µM (inactive) in the test with EKVX; 37.2 µM (inactive) in the test with SNB-75. Also, the GI50 is 19.7 µM (inactive) with A549; 25.1 µM (inactive) with U-251; 36.1 µM (inactive) in the test with SK-MEL-2; 4.09 µM (inactive) with HL-60; 30.3 µM (inactive) in the test on NCI-H23; 21.3 µM (inactive) with NCI-H460. For the same molecule, the GI50 in the test with KM12 was 17.3 µM (inactive); in the test with MOLT-4, 14.8 µM (inactive); with OVCAR-5, 24.8 µM (inactive); in the test with M14 it was 32.1 µM (inactive); in the test with TK-10, 33.3 µM (inactive).
For the molecule `CC(C)(C)OC/C=C1\C(=O)O[C@H]2C[C@@H](O[Si](C)(C)C(C)(C)C)C[C@@H]12`, the GI50 in the test on MCF7 is 35.4 µM (inactive); in the test with UO-31, 53.8 µM (inactive); with SF-295 it was 48.6 µM (inactive); with RXF 393, 32.2 µM (inactive); in the test with LOX IMVI it was 98.2 µM (inactive); in the test with EKVX, > 100 µM (inactive). For the same molecule, the GI50 in the test on SNB-75 is 63.7 µM (inactive); with A549, 69.2 µM (inactive); in the test with U-251, 83 µM (inactive); with SK-MEL-2, > 100 µM (inactive); in the test with NCI-H23, 52.4 µM (inactive); in the test on NCI-H460 it was > 100 µM (inactive). Moreover, the GI50 in the test with KM12 was 67.9 µM (inactive); with MDA-MB-435 it was 96.2 µM (inactive); in the test with MOLT-4, 25.1 µM (inactive); with OVCAR-5, > 100 µM (inactive); with M14, 61.8 µM (inactive); with TK-10, > 100 µM (inactive).
Regarding `O=C(c1ccccc1)c1nnc(C(=O)c2ccccc2)nn1`, the GI50 in the test on UO-31 is > 344 µM (inactive); in the test on SF-295 it was 139 µM (inactive); with RXF 393, 151 µM (inactive); with LOX IMVI it was 282 µM (inactive); in the test with EKVX, > 344 µM (inactive); in the test with SNB-75, 83.4 µM (inactive). For the same molecule, the GI50 with A549 was > 344 µM (inactive); with U-251, 165 µM (inactive); with SK-MEL-2 it was > 344 µM (inactive); in the test with HL-60, > 344 µM (inactive); with NCI-H23 it was 308 µM (inactive); with NCI-H460, > 344 µM (inactive). Further, the GI50 in the test with KM12 was > 344 µM (inactive); in the test with MOLT-4, > 344 µM (inactive); with OVCAR-5, > 344 µM (inactive); in the test with M14 it was 272 µM (inactive); in the test with TK-10, > 344 µM (inactive).
Turning to `Cn1c(=N)n[n+]([O-])c2ccccc21`, the GI50 in the test with MCF7 is 2.18 µM (inactive); in the test with UO-31, 3.22 µM (inactive); with SF-295 it was 2.98 µM (inactive); with LOX IMVI, 1.62 µM (inactive); with EKVX, 7.69 µM (inactive); in the test with SNB-75, 2.01 µM (inactive). Further, the GI50 in the test with A549 was 7.38 µM (inactive); with U-251, 12.3 µM (inactive); in the test with SK-MEL-2 it was 2.22 µM (inactive); in the test on HL-60, 2.79 µM (inactive); in the test on NCI-H23, 2.07 µM (inactive); in the test on KM12, 19.9 µM (inactive). Moreover, the GI50 with MDA-MB-435 is 0.541 µM (active); with MOLT-4, 2.03 µM (inactive); in the test with OVCAR-5 it was 2.25 µM (inactive); in the test with M14, 2.02 µM (inactive); in the test on TK-10, 25.6 µM (inactive).
As for `C#CCN(N=O)C(=O)NC(CCCNC(=O)OCc1ccccc1)C(=O)OCc1ccccc1` (stereo not given), the GI50 in the test on UO-31 is > 100 µM (inactive); in the test on SF-295, > 100 µM (inactive); with RXF 393 it was 22.6 µM (inactive); in the test on LOX IMVI it was 52.4 µM (inactive); in the test on EKVX it was > 100 µM (inactive); with SNB-75 it was > 100 µM (inactive). Moreover, the GI50 is > 100 µM (inactive) in the test on A549; > 100 µM (inactive) in the test on U-251; > 100 µM (inactive) in the test with SK-MEL-2; 20.1 µM (inactive) in the test on HL-60; > 100 µM (inactive) in the test with NCI-H23; > 100 µM (inactive) in the test with NCI-H460. Also, the GI50 with KM12 is > 100 µM (inactive); with MOLT-4, 24.8 µM (inactive); with OVCAR-5 it was > 100 µM (inactive); in the test with M14, > 100 µM (inactive); in the test on TK-10 it was > 100 µM (inactive).
Turning to `O=C1Nc2ccc(Cl)cc2C(=O)N2CCC[C@@H]12`, the GI50 was > 100 µM (inactive) with MCF7; > 100 µM (inactive) with UO-31; > 100 µM (inactive) in the test with SF-295; 60.3 µM (inactive) with RXF 393; > 100 µM (inactive) in the test with LOX IMVI; > 100 µM (inactive) in the test with EKVX. The GI50 in the test on SNB-75, in the test with A549, in the test on U-251, in the test on SK-MEL-2, in the test on NCI-H23 and in the test with NCI-H460 was > 100 µM (inactive) in each case. Further, the GI50 in the test with KM12, in the test on MDA-MB-435, in the test on MOLT-4, with OVCAR-5, in the test on M14 and in the test on TK-10 was > 100 µM (inactive) throughout.
For `O=C1C2C3C=CC(C2C(=O)N1COP(=O)(O)O)C1C2C(=O)N(COP(=O)(O)O)C(=O)C2C31` (stereo not given), the GI50 is > 100 µM (inactive) in the test with UO-31; > 100 µM (inactive) with SF-295; > 100 µM (inactive) in the test with RXF 393; > 43.4 µM (inactive) with LOX IMVI; > 100 µM (inactive) in the test on EKVX; > 100 µM (inactive) in the test with SNB-75. For the same molecule, the GI50 with A549 was > 69.7 µM (inactive); in the test with U-251, > 70.5 µM (inactive); with SK-MEL-2, > 100 µM (inactive); with HL-60, 15.5 µM (inactive); in the test on NCI-H23 it was > 100 µM (inactive); in the test with NCI-H460, > 41.9 µM (inactive). Further, the GI50 in the test with KM12, with MOLT-4, in the test with OVCAR-5, in the test on M14 and with TK-10 was > 100 µM (inactive) each time.
Turning to `COc1cc(Nc2nc3cc(C(F)(F)F)ccc3nc2-c2ccccc2)cc(OC)c1OC`, the GI50 with UO-31 is > 100 µM (inactive); in the test on SF-295 it was 54.6 µM (inactive); with RXF 393, 18.1 µM (inactive); with LOX IMVI it was > 100 µM (inactive); in the test on EKVX, 24.3 µM (inactive); in the test with SNB-75, 39.7 µM (inactive). Also, the GI50 was 92.3 µM (inactive) with A549; 57.4 µM (inactive) in the test with U-251; > 100 µM (inactive) with SK-MEL-2; 39.3 µM (inactive) in the test on HL-60; > 100 µM (inactive) in the test on NCI-H23; > 100 µM (inactive) in the test on NCI-H460. The GI50 in the test with KM12 is > 100 µM (inactive); in the test on MOLT-4 it was > 100 µM (inactive); in the test with OVCAR-5 it was > 100 µM (inactive); in the test on M14 it was > 100 µM (inactive); in the test on TK-10, 30.5 µM (inactive).
As for `CCN1C(=O)/C(=C\c2coc3ccccc3c2=O)SC1=S`, the GI50 with UO-31 is > 100 µM (inactive); with SF-295, 42 µM (inactive); with RXF 393 it was 36.5 µM (inactive); in the test with LOX IMVI, 42.1 µM (inactive); with EKVX, > 100 µM (inactive); in the test on SNB-75, 41.2 µM (inactive). Moreover, the GI50 is > 100 µM (inactive) in the test on A549; 28.3 µM (inactive) in the test on U-251; > 100 µM (inactive) with SK-MEL-2; > 100 µM (inactive) with HL-60; 58.9 µM (inactive) in the test on NCI-H23; > 100 µM (inactive) in the test with NCI-H460. Further, the GI50 in the test on KM12, in the test on MOLT-4, with OVCAR-5, in the test with M14 and in the test with TK-10 was > 100 µM (inactive) throughout.
In the case of `CSC1CC2C(CC1(C)SC)C2(C)C` (stereo not given), the GI50 in the test with UO-31 was 19.9 µM (inactive); with SF-295, 30.8 µM (inactive); with RXF 393, 56.5 µM (inactive); with LOX IMVI it was 30.7 µM (inactive); with EKVX, 30.2 µM (inactive); with SNB-75, 23.2 µM (inactive). In addition, the GI50 in the test with A549 is 32.7 µM (inactive); in the test with U-251, 32.1 µM (inactive); with SK-MEL-2 it was 23.2 µM (inactive); in the test on HL-60 it was 20.2 µM (inactive); in the test with NCI-H23 it was 61.7 µM (inactive); in the test on NCI-H460, 23.9 µM (inactive). In addition, the GI50 in the test with KM12 was 48.2 µM (inactive); in the test on MOLT-4, 22.6 µM (inactive); in the test with OVCAR-5, 40.8 µM (inactive); in the test with M14 it was 92 µM (inactive); with TK-10, > 100 µM (inactive).
With `CCCCCCCCCCCCCCCCc1c(C(=O)OC)[nH]c(=S)[nH]c1=O`, the GI50 in the test on UO-31, in the test on SF-295, in the test with RXF 393, with LOX IMVI, in the test on EKVX and in the test on SNB-75 was > 50 µM (inactive) throughout. The GI50 in the test with A549, with U-251, in the test with SK-MEL-2, with HL-60, in the test on NCI-H23 and in the test with NCI-H460 was > 50 µM (inactive) throughout. Moreover, the GI50 in the test on KM12, in the test with MOLT-4, in the test with OVCAR-5, in the test with M14 and with TK-10 was > 50 µM (inactive) throughout.
